Several values for one entry are separate records, joined by “and”; a condition that tells them apart may be missing. Equal values may be shown once.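 Protocol summary: plate cells (96-well), add compound at 5 concentrations, incubate 48 h, interpolate endpoints linearly. Here, GI50 denotes the concentration required for 50% inhibition of growth. Definition used: TGI = concentration required for complete inhibition of growth.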 *1 amine or outer side, *2 acyl side, *3 side chain or, on linkers, in order; H or OH if unused. Where a SMILES comes first, the peptide text is derived from it. Bridges are numbered along the chain shown (N, C = ends). [ ]: non-standard residue; d: D form. The star is where a group is joined. ξ: configuration not given here. Phe(3,5-F2) = N[C@@H](Cc1cc(F)cc(F)c1)C(=O)O; ξThr(3S) = C[C@H](O[*:3])C(N[*:1])C(=O)[*:2]; Pro(4R-Me) = C[C@H]1CN[C@H](C(=O)O)C1; Pip = O=C(O)[C@@H]1CCCCN1; X1 = Cc1ccc(N*)c(F)c1; CO = O=C([*:1])[*:2]
Columns and labels:
Assay in all cases: inhibition of tumour cell growth, NCI panel, 48 h
MALME-3M melanoma = test system: MALME-3M melanoma
SW-620 colon = test system: SW-620 colon
SF-295 CNS = test system: SF-295 CNS
RXF 393 renal = test system: RXF 393 renal
RPMI-8226 leukemia = test system: RPMI-8226 leukemia
NCI-H522 lung = test system: NCI-H522 lung
A549 NSCLC = test system: A549 NSCLC
A498 renal = test system: A498 renal
UACC-257 melanoma = test system: UACC-257 melanoma
CCRF-CEM leukemia = test system: CCRF-CEM leukemia
HCT-116 colon = test system: HCT-116 colon
HCT-15 colon = test system: HCT-15 colon
HT29 colon = test system: HT29 colon
M14 melanoma = test system: M14 melanoma
786-0 renal = test system: 786-0 renal
HOP-62 NSCLC = test system: HOP-62 NSCLC
IGROV1 ovarian = test system: IGROV1 ovarian
K-562 leukemia = test system: K-562 leukemia
UACC-62 melanoma = test system: UACC-62 melanoma
NCI-H226 lung = test system: NCI-H226 lung
SK-OV-3 ovarian = test system: SK-OV-3 ovarian
SN12C renal = test system: SN12C renal
OVCAR-8 ovarian = test system: OVCAR-8 ovarian
KM12 colon = test system: KM12 colon
MCF7 breast = test system: MCF7 breast
MDA-MB-435 = test system: MDA-MB-435
MDA-MB-231 breast = test system: MDA-MB-231 breast
HS 578T breast = test system: HS 578T breast
SR leukemia = test system: SR leukemia

SMILES: Cc1ccc(NC(=O)N[C@@H](Cc2cc(F)cc(F)c2)C(=O)NC2C(=O)N3CCC[C@H]3C(=O)N3CCCC[C@H]3C(=O)N[C@@H](C)C(=O)N3C[C@H](C)C[C@H]3C(=O)O[C@H]2C)c(F)c1 (stereo partly drawn) ({X1-CO}-[Phe(3,5-F2)][ξThr(3S)]P[Pip]A[Pro(4R-Me)]; ester 2-C)
- GI50 (MALME-3M melanoma): 410 nM and 561 nM
- TGI (MALME-3M melanoma): 17100 nM and 19100 nM
- GI50 (SW-620 colon): 433 nM and 483 nM
- TGI (SW-620 colon): 50000 nM and > 100000 nM
- GI50 (SF-295 CNS): 200 nM and 240 nM
- TGI (SF-295 CNS): 11500 nM and 3580 nM
- GI50 (RXF 393 renal): 2870 nM and 778 nM
- TGI (RXF 393 renal): 17500 nM and 9160 nM
- GI50 (RPMI-8226 leukemia): 119 nM and 38 nM
- TGI (RPMI-8226 leukemia): 6250 nM and 1300 nM
- GI50 (NCI-H522 lung): 211 nM and 119 nM
- TGI (NCI-H522 lung): 8500 nM and 10700 nM
- GI50 (A549 NSCLC): 223 nM and 640 nM
- TGI (A549 NSCLC): 50000 nM and > 100000 nM
- GI50 (A498 renal): 5140 nM and 950 nM
- TGI (A498 renal): 41200 nM and 10200 nM
- GI50 (UACC-257 melanoma): 191 nM and 316 nM
- TGI (UACC-257 melanoma): 7580 nM and 7520 nM
- GI50 (CCRF-CEM leukemia): 236 nM and 127 nM
- TGI (CCRF-CEM leukemia): 50000 nM and 30100 nM
- GI50 (HCT-116 colon): 266 nM and 65.3 nM
- TGI (HCT-116 colon): 7470 nM and 11100 nM
- GI50 (HCT-15 colon): 231 nM and 357 nM
- TGI (HCT-15 colon): 10000 nM and 14900 nM
- GI50 (HT29 colon): 276 nM and 302 nM
- TGI (HT29 colon): 10200 nM and 10100 nM
- GI50 (M14 melanoma): 297 nM and 245 nM
- TGI (M14 melanoma): 9860 nM and 16400 nM
- GI50 (786-0 renal): 422 nM and 633 nM
- TGI (786-0 renal): 50000 nM and > 100000 nM
- GI50 (HOP-62 NSCLC): 235 nM and 322 nM
- TGI (HOP-62 NSCLC): 50000 nM and 46300 nM
- GI50 (IGROV1 ovarian): 2470 nM and 828 nM
- TGI (IGROV1 ovarian): 40400 nM and > 100000 nM
- GI50 (K-562 leukemia): 134 nM and 43.7 nM
- TGI (K-562 leukemia): 50000 nM and > 100000 nM
- GI50 (UACC-62 melanoma): 247 nM and 451 nM
- TGI (UACC-62 melanoma): 10700 nM and 19300 nM
- GI50 (NCI-H226 lung): 272 nM and 368 nM
- TGI (NCI-H226 lung): 40500 nM and 7750 nM
- GI50 (SK-OV-3 ovarian): 225 nM and 360 nM
- TGI (SK-OV-3 ovarian): 17400 nM and 7040 nM
- GI50 (SN12C renal): 171 nM and 303 nM
- TGI (SN12C renal): 50000 nM and > 100000 nM
- GI50 (OVCAR-8 ovarian): 194 nM and 64.6 nM
- TGI (OVCAR-8 ovarian): 50000 nM and > 100000 nM
- GI50 (KM12 colon): 533 nM and 384 nM
- TGI (KM12 colon): 23500 nM and 24300 nM
- GI50 (MCF7 breast): 206 nM and 195 nM
- TGI (MCF7 breast): 50000 nM and 53500 nM
- GI50 (MDA-MB-435): 230 nM and 117 nM
- TGI (MDA-MB-435): 12300 nM and 14600 nM
- GI50 (MDA-MB-231 breast): 166 nM and 279 nM
- TGI (MDA-MB-231 breast): 1840 nM and 12800 nM
- GI50 (HS 578T breast): 394 nM
- TGI (HS 578T breast): 50000 nM and 8560 nM
- GI50 (SR leukemia): 334 nM and 626 nM
- TGI (SR leukemia): 12100 nM and 21600 nM

Reference: PubChem BioAssay (NCI)
